What all share (assay): Isothermal titration calorimetry
Holding throughout (type): binding
(In general: ITC needs no label: the signal is the heat of the interaction.)

Experiment [1] concerns the target Moubatin (Ornithodoros moubata, UniProt Q04669).
Experiment [2] concerns the target T1, TSGP3 (Ornithodoros kalahariensis, UniProt Q8I9U0).
T1 sequence (Q8I9U0 20-163): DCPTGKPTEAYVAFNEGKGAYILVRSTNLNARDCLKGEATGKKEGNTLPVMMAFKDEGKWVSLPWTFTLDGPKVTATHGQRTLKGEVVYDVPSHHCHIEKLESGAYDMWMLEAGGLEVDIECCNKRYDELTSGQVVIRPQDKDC

Experiment [3] has as its target T2, TSGP2 (Ornithodoros kalahariensis, UniProt Q8I9U1).
T2 sequence (Q8I9U1 20-163): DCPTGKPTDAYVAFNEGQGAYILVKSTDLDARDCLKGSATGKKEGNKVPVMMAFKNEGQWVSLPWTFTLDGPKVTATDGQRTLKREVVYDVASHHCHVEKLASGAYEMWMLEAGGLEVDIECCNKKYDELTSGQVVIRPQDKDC

The target of experiment [4] is T3, Moubatin-like 3 (Ornithodoros parkeri, UniProt A6N9T1).
T3 sequence (A6N9T1 20-176): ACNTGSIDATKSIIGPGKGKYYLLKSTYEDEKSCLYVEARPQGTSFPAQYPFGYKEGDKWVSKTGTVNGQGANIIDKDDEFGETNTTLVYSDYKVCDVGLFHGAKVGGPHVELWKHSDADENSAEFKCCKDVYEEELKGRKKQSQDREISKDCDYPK

Experiment [5] addresses TSGP3_G85R (Ornithodoros kalahariensis, UniProt Q8I9U0, G104R).
The target in experiment [6] is T2_M4 (Ornithodoros kalahariensis, UniProt Q8I9U1, K92N/T101K/T85M/T94V).
Experiment [7] deals with T2_H95D (Ornithodoros kalahariensis, UniProt Q8I9U1, H114D).
The target of experiment [8] is T2_ML (Ornithodoros kalahariensis, UniProt Q8I9U1, A132G/E131N/E136D/G133S/G134A/L130S/L135D/M127Q/M129Q/V137K).
Experiment [9] has as its target TSGP2_R85G (Ornithodoros kalahariensis, UniProt Q8I9U1, R104G).

From article PMC2613973 (Insect biochemistry and molecular biology, 2008) come the findings set out here.

For orientation: Kd means the equilibrium constant for the complex coming apart. Low readings indicate a tighter complex, high ones a looser complex. For `CCCCC/C=C\C/C=C\C/C=C\C/C=C\CCCC(=O)O` [Arachidonic acid, arachidonic acid (AA)], the dissociation constant (Kd) in experiment [1] turned out to be 34 ± 6 nM; in [2] it was 59 ± 24 nM; in [3], 69 ± 7 nM.

For the molecule `NCCc1c[nH]cn1` [Histamine, histamine], the Kd in experiment [4] was determined as 106 ± 3 nM.

Take `CCCCC/C=C\C[C@@H](O)/C=C/C=C/C=C\[C@@H](O)CCCC(=O)O` [LTB4, leukotriene B4]: the Kd came out at 228 ± 36 nM in experiment [5]; 16 ± 3 nM in [1]; 6 ± 0.8 nM in [6]; 21 ± 5 nM in experiment [2]; 12 ± 2 nM in experiment [7]; 12 ± 2 nM in experiment [8]. The dissociation constant (Kd) came out at 10 ± 1.6 nM in experiment [9] and 18 ± 3 nM in [3].

On to `NCCc1c[nH]c2ccc(O)cc12` [Serotonin, serotonin (5-hydroxytryptamine, 5-HT)], for which the dissociation constant (Kd) in experiment [4] amounted to 116 ± 13 nM.

As to `CCCCC[C@H](O)/C=C/[C@@H]1[C@@H](C/C=C\CCCC(=O)O)[C@H]2CO[C@@H]1C2` [U46619, 9,11-dideoxy-9α,11α-methanoepoxy prostaglandin F2α (stable thromboxane A2 analog)], the Kd stood at 20 ± 3 nM in experiment [1], 9 ± 1 nM in experiment [2] and 7 ± 1 nM in experiment [9].

`CCCCC[C@H](O)/C=C/C1CC2CC(C2)C1C/C=C\CCCC(=O)O` (stereo partly drawn) [cTXA2, carbocyclic thromboxane A2]: the Kd turned out to be 24 ± 4 nM in experiment [1] and 5 ± 0.7 nM in experiment [2].
